How the values were obtained:
human MSCs [1] = assay: Western blot analysis of TH protein expression after differentiation protocols; type: cell-based; details: result in words
Procedure: MSC isolation, culture, and characterization: Fresh bone marrow aspirates harvested from the iliac crests of adult donors (age 19-76) were diluted with Hanks' balanced salt solution. Mononuclear cells were isolated by centrifugation in Unisep-Maxi tubes (Novamed, Jerusalem, Israel) by density gradient. The cells were then plated in Dulbecco's Modified Eagle's Medium (DMEM) supplemented with 15% fetal bovine serum (FBS), 2 mM glutamine, 100 μg/ml streptomycin, 100 units/ml penicillin, 12.5 units/ml nystatin (Biological Industries, Beit HaEmek, Israel) in polystyrene plastic 75-cm^2 tissue-culture flasks. After 24 hours, nonadherent cells were removed. The medium was changed every 3-4 days. Adherent cells were cultured to 70%-90% confluence and reseeded at a density of 5,000-10,000 cells/cm^2. The cells were maintained at 37° C. in a humidified 5% CO2 incubator. The MSCs were characterized for their cell-surface phenotype and their mesenchymal differentiation capacity, as previously described (Blondheim er al., 2006, Stem Cells Dev 15:141-164).
(§1) Induction of differentiation: The differentiation protocol was composed of 2 steps. In step 1, cells were transferred to serum-free medium (DMEM) supplemented with 2 mM glutamine, 100 μg/ml streptomycin, 100 units/ml penicillin, 12.5 units/ml nystatin (Biological Industries), N2 supplement (Invitrogen, New Haven, Conn.) and 20 ng/ml fibroblast growth factor 2 and epidermal growth factor (both from R&D Systems, Minneapolis, Minn.) for 48-72 hours. In step 2, the medium was changed to Basic induction medium containing Neurobasal, B27 (both from Invitrogen), in addition to 1 mM dibutyryl cyclic AMP (dbcAMP), 3-isobutyl-1-methyl-xanthine (IBMX), and 200 μM ascorbic acid (all from Sigma, St Louis, Mo.). The following factors were added to the Basic induction medium in different combinations: brain-derived neurotrophic factor (BDNF; 50 ng/ml), glial-derived neurotrophic factor (GDNF;10 ng/ml), neurturin (100 ng/ml), neurotrophin 3 (NT3; 50 ng/ml), and fibroblast growth factor 8 (FGF8; 100 ng/ml (all from Cytolab, Rehovot, Israel); transforming growth factor β3 (TGFβ3; 2 ng/ml), sonic hedgehog (Shh; 500 ng/ml, both from R&D); estrogen (0.1 μM, Sigma); and all-trans-retinoic acid (RA; 0.1 μM, Sigma).
Western blot: Total protein was extracted by suspending the harvested cells in lysis buffer containing 10 mM Tris base (U.S. Biochemical Corporation, Cleveland, Ohio), 5 mM EDTA (Merck, Whitehouse Station, N.J.), 140 mM sodium chloride (NaCl; BioLab, Jerusalem, Israel), 10 mM sodium fluoride (NaF; Sigma), 0.5% NP 40 (U.S. Biochemical Corporation), and 1 μM phenylmethylsulfonyl fluoride (PMSF; Sigma). Following incubation on ice for 30 minutes, the mixture was centrifuged and the supernatants were collected. Protein content was determined by the BCA protein assay kit (Pierce, Rockford, Ill.). Twenty-five micrograms of protein from each sample were subjected to sodium dodecyl-sulfate (SDS)-polyacrylamide gel electrophoresis (PAGE) (12.5% acrylamide), followed by electrophoretic transfer to nitrocellulose membrane (Schleicher & Schuell, Dassel, Germany). Membranes were probed by mouse anti-TH (1:10,000, Sigma) and mouse anti β-actin (1:10,000, Chemicon, Billerica, Mass.) and then by goat anti-mouse horseradish peroxidase conjugated antibody (1:10,000) (Jackson, West Grove, Pa.) and rabbit anti-emerin (1:5,000, Santa Cruz Biotechnology, Santa Cruz, Calif.), followed by goat anti-rabbit horseradish peroxidase conjugated secondary antibody (1:10,000, Sigma). Adequate controls included HeLa cells (ATCC, Manassas, Va.) as negative control and neuroblastoma M17 cells (BE (2)-M17, ATCC) as positive control. Proteins of interest were detected using the enhanced Super Signal® chemiluminescent detection kit (Pierce).

human MSCs [2] = assay: Cell death in culture on supplementation of antioxidants; type: cell-based; details: antioxidant supplementation of differentiation medium; data not shown
Procedure: as §1

Molecule: estrogen [+estrogen, reference compound]
- TH protein expression level normalized to actin (human MSCs [1]): directly affected the TH protein expression level

Molecule: COc1ccc(O)c(C(C)(C)C)c1 [BHA, butylated hydroxyanisole, reference compound]
- TH protein expression level normalized to actin (human MSCs [1]): did not facilitate upregulation
- cell death in the culture (human MSCs [2]): higher levels of cell death

Molecule: CC(=O)N[C@@H](CS)C(=O)O [NAC, N-acetylcysteine, reference compound]
- TH protein expression level normalized to actin (human MSCs [1]): did not facilitate upregulation
- cell death in the culture (human MSCs [2]): higher levels of cell death

Molecule: sonic hedgehog [+SHH]
- TH protein expression level normalized to actin (human MSCs [1]): directly affected the TH protein expression level

B1: transforming growth factor β3 (protein, UniProt P10600 301-412, looked up)
Transforming growth factor …: ALDTNYCFRNLEENCCVRPLYIDFRQDLGWKWVHEPKGYYANFCSGPCPYLRSADTTHSTVLGLYNTLNPEASASPCCVPQDLEPLTILYYVGRTPKVEQLSNMVVKSCKCS
notes: transforming growth factor β3 (2 ng/ml) added to the Basic induction medium
- TH protein expression level normalized to actin (human MSCs [1]): directly affected the TH protein expression level

B2: glial-derived neurotrophic factor (protein, UniProt P39905 78-211, looked up)
Glial cell line-derived …: SPDKQMAVLPRRERNRQAAAANPENSRGKGRRGQRGKNRGCVLTAIHLNVTDLGLGYETKEELIFRYCSGSCDAAETTYDKILKNLSRNRRLVSDKVGQACCRPIAFDDDLSFLDDNLVYHILRKHSAKRCGCI
notes: glial-derived neurotrophic factor (10 ng/ml) added to the Basic induction medium
- TH protein expression level normalized to actin (human MSCs [1]): directly affected the TH protein expression level
